# Test results taken from PMC12391391, “The balance between B55α and Greatwall expression levels predicts sensitivity to Greatwall inhibition in cancer cells” (Nature Communications, 2025).
# Legend:
# Experiment in all cases: biochemical
# Set-up in all cases: LanthaScreen kinase activity assay (Thermo Fisher), dose-dependent inhibition by C-604
# Details in all cases: read-out: IC50 (C-604)
# GSK3B = GSK3B (Homo sapiens, UniProt P49841)
# Experimental: (§1) To identify potential C-604 off-targets, we utilised a commercially available off-target screening service (Thermo Fisher Scientific) to assess the impact of C-604 on the in vitro activity of 100 human kinases (Supplementary Fig. 8a). Out of 100 tested targets, C-604 (1 µM) inhibited GWL (inhibition 95%) and an additional 10 kinases (inhibition ≥ 80%). […] The in vitro off-target effects of compound C-604 were determined by assessing its inhibitory potential in a panel of 100 human kinases using the LanthaScreen Kinase Activity Assay (Thermo Fisher Scientific).
# HIPK2 = HIPK2 (Homo sapiens, UniProt Q9H2X6)
# Experimental: as §1
# MAP3K7 = molecular target: T1, MAP3K7 (Homo sapiens, UniProt O43318)
# T1 sequence (O43318 1-606): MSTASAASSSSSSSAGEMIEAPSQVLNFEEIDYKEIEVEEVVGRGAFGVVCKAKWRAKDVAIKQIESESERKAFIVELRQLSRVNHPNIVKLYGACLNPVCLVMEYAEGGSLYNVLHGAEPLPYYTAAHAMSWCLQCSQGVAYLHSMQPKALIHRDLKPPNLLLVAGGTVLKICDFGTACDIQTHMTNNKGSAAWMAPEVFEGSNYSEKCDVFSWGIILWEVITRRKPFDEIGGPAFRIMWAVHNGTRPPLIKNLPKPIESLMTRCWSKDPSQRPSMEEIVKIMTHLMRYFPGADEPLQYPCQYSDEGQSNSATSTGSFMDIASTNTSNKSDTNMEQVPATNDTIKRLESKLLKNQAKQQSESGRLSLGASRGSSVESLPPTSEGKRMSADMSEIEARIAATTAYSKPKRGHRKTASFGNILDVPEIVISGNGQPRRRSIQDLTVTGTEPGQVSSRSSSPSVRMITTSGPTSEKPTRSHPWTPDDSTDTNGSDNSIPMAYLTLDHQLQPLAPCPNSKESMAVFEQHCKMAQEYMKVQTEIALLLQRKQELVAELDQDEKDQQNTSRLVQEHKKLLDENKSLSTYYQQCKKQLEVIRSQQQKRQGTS
# Experimental: as §1
# MARK3 = MARK3 (Homo sapiens, UniProt P27448)
# Experimental: as §1
# MELK = MELK (Homo sapiens, UniProt Q14680)
# Experimental: as §1
# STK17A = molecular target: T2, STK17A (Homo sapiens, UniProt Q9UEE5)
# T2 sequence (Q9UEE5 1-414): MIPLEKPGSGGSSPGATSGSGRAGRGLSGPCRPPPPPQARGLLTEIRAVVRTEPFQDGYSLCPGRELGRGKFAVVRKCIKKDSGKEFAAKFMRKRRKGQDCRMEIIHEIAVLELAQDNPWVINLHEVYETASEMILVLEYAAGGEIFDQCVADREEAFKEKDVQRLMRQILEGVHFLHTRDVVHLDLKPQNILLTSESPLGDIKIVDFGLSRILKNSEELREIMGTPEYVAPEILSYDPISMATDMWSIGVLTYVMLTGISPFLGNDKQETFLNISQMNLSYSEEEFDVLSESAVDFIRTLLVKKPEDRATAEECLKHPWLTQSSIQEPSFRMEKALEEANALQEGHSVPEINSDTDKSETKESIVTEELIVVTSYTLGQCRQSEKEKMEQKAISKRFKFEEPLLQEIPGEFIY
# Experimental: as §1
# ULK2 = molecular target: T3, ULK2 (Homo sapiens, UniProt Q8IYT8)
# T3 sequence (Q8IYT8 1-1036): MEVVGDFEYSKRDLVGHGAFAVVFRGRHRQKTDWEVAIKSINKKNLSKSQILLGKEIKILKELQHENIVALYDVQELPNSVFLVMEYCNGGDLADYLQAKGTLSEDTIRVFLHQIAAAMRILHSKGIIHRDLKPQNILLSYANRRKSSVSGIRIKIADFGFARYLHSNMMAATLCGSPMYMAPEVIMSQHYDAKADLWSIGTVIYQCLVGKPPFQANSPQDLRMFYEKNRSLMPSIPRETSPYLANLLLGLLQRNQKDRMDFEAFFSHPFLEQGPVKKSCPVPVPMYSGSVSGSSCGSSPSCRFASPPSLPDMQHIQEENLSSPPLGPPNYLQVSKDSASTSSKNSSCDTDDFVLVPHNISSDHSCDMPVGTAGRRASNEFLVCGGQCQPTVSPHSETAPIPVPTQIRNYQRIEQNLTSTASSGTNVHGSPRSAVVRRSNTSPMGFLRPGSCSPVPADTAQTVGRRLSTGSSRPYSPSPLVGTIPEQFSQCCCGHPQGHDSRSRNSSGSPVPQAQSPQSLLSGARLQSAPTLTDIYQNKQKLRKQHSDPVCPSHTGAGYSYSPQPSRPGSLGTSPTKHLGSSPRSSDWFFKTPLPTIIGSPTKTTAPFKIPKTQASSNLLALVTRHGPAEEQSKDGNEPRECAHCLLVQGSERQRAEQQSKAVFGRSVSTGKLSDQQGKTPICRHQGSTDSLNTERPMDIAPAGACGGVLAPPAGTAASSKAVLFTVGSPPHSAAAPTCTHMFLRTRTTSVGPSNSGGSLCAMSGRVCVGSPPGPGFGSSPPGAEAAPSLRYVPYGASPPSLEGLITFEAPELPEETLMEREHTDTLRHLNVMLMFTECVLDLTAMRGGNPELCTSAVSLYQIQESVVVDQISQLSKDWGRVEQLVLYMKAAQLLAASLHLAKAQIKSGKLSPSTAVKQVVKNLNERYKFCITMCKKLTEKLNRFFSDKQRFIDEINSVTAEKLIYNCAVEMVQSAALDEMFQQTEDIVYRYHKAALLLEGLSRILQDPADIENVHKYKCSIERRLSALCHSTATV
# Experimental: as §1
# MARK3, sequence (P27448 whole entry): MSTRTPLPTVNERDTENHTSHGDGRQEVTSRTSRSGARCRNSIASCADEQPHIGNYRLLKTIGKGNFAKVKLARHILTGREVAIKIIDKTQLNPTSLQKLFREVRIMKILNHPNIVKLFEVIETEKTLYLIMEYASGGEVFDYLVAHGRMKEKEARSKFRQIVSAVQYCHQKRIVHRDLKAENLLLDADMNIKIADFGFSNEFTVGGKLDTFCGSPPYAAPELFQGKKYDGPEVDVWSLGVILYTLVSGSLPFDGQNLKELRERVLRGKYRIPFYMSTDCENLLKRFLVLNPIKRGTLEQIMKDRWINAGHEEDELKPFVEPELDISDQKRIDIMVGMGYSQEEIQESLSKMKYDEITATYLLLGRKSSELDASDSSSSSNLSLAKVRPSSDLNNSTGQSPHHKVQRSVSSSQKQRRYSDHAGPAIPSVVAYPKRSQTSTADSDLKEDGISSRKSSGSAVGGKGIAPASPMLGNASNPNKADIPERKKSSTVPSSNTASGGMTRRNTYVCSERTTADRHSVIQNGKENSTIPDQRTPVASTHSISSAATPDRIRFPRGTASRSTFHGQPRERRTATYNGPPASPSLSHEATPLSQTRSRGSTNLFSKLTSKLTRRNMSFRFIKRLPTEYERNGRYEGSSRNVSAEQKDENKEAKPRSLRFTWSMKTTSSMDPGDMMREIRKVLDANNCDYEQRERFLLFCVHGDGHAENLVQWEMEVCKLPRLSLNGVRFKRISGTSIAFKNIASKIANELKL
# GSK3B, sequence (P49841 whole entry): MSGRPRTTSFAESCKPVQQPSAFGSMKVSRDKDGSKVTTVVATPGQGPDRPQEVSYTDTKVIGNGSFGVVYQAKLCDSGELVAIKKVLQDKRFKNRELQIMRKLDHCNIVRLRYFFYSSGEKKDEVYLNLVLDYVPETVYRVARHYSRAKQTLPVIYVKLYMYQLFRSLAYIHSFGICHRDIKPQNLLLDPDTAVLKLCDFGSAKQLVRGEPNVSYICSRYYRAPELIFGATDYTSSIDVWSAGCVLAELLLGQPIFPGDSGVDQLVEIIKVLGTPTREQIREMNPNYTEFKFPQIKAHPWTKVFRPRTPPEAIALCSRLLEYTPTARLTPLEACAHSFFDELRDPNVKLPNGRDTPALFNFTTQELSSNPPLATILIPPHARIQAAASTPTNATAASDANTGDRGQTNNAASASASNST
# HIPK2, sequence (Q9H2X6 whole entry): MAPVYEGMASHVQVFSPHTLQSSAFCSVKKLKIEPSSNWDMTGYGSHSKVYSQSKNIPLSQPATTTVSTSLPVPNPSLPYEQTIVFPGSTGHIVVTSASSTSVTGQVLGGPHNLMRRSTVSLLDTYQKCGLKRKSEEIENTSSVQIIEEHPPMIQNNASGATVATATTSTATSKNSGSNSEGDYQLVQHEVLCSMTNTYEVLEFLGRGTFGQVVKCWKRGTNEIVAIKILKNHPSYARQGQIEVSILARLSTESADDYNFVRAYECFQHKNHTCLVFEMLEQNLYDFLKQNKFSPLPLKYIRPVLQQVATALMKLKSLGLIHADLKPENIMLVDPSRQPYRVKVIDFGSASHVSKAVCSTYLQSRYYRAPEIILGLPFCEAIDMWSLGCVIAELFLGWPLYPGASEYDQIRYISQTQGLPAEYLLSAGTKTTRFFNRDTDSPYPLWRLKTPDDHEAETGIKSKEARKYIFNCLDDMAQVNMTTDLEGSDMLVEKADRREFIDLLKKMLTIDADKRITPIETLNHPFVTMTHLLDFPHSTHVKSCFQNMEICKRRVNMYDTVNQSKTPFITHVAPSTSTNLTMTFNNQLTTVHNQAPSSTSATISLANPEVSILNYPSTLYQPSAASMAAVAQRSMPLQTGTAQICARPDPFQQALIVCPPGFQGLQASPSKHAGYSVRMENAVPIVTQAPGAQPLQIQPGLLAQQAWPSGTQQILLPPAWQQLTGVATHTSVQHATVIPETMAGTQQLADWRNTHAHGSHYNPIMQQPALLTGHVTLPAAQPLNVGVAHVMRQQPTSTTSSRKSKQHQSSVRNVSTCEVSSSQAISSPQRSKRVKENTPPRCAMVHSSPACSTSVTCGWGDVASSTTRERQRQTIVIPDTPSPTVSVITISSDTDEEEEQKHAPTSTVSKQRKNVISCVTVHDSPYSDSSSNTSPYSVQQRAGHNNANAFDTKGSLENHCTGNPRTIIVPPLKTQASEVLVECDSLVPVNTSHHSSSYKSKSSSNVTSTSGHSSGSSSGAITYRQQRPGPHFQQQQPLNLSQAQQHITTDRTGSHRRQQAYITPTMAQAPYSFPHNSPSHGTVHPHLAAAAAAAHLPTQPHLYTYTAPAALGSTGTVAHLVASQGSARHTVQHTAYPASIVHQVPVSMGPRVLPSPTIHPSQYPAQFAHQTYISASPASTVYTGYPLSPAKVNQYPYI
# MELK, sequence (Q14680 whole entry): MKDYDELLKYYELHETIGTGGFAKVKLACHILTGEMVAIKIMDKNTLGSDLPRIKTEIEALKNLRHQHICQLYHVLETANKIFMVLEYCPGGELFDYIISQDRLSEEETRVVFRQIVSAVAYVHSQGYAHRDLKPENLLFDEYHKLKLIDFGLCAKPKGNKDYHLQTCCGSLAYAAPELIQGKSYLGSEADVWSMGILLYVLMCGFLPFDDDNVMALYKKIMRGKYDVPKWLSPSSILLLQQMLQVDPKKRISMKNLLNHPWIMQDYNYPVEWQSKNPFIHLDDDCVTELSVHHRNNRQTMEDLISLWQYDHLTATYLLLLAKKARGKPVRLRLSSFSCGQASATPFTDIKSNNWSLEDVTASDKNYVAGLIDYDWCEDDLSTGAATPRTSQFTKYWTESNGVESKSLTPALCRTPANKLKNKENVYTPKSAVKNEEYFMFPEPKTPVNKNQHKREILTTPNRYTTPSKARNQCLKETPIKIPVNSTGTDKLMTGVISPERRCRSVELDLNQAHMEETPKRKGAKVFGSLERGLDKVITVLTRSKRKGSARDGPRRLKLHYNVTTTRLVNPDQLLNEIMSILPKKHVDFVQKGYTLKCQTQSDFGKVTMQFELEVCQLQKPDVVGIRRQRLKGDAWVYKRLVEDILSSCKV
smiles,measurement,setting,value
"CNC(=O)c1c[nH]c2ncc(-c3ccc(OCCN4CCC(c5ccccc5)C4)cc3)nc12 (racemic) [compound 21, C-604]",IC50,GSK3B,283 nM
same,IC50,HIPK2,43 nM
same,IC50,MAP3K7,126 nM
same,IC50,MARK3,480 nM
same,IC50,MELK,16.9 nM
same,IC50,STK17A,154 nM
same,IC50,ULK2,21.6 nM
